# Assay results from patent US8815887B2, “Prophylactic or therapeutic method for Sjogren's syndrome” (Takeda Pharmaceutical Company Limited, priority 2012, dated 2014).
# Key:
# Assay type in all cases: in vivo
# [1] = tested on: NOD/ShiLtJ mouse; experiment: Saliva secretion amount by pilocarpine stimulation in Sjogren's syndrome animal model
# From the text: As an animal model for Sjogren's syndrome, most widely used NOD/ShiLtJ mouse (hereinafter sometimes referred to as NOD mouse) was selected since it meets the both conditions of the diagnosis standard: 1) development of dry eye and dry mouth, 2) increase of anti-SS-A/Ro and anti-SS-B/La antibody titer, and is easily available (Tegan N. Lavoie et. al., Journal of Biomedicine and Biotechnology Volume 2011 (2011), Article ID 549107, pp 1-14). 6-Week-old NOD mice were purchased from The Jackson Laboratory (US), after acclimatization for 1-2 weeks, animals before onset of diabetes were divided into 3 groups (maximum 30 mice per group) by randomization into each of the groups based on the body weight measured before the start of the test drug administration and the data of saliva secretion amount by pilocarpine stimulation under ketamine•xylazine anesthesia and subjected to the test. During the test drug treatment, the body weight and the blood glucose level were monitored at least once a week. The blood glucose level of several μL of the blood collected from the tail vein under 1-5% isoflurane anesthesia was measured by a blood glucose level measuring instrument (Accu-Chek Aviva Nano, Roche diagnostics K.K.). The diabetes diagnosis criteria was not less than 250 mg/dL, and one insulin pellet (LinBit, LinShin Canada, Inc.) was subcutaneously transplanted under 1-5% isoflurane anesthesia into the abdomen of the mouse that developed diabetes, and the blood glucose was controlled during the study by monitoring the blood glucose level, and adding or removing the pellet as necessary.
# Compound A was orally administered twice daily (minimum ic dosing interval 6 hours) every day except Saturdays and Sundays. The dose of compound A was 50 mg/kg or 250 mg/kg, and 0.2 mL was orally administered as a single dose. The concentration of compound A was appropriately controlled by calculating an average body weight of the group once a week from the body weights of the NOD mice, and adjusting the concentration such that the administration of 0.2 mL results in the administration of each dose. On the other hand, the vehicle group without administration of compound A was orally administered with 0.2 mL of 0.5% methylcellulose solution in the same schedule as above.
# Under anesthesia by intraperitoneal administration of a mixture (10 mL/kg) of ketamine (100 mg/kg) and xylazine (10 mg/kg), the saliva secreted in 15 min after subcutaneous administration of pilocarpine (5 mg/kg) was collected with defatted cotton, and the secretion amount was calculated from the defatted cotton weight before and after the measurement.
# This measurement was performed twice when the mice reached 21-week-old and 26-week-old.
# (§1) The saliva secretion amount in 23-week-old NOD mice administered with compound A or compound B was measured in the same manner as in Experimental Example 2.
# [2] = tested on: NOD/ShiLtJ mouse; experiment: Tolerability in the long-term efficacy study (Experimental Example 3); conditions: relatively long term, same dose range (50 and 250 mg/kg)
# Protocol: as §1
# [3] = tested on: CD4+ T cells in the salivary gland; experiment: CD4 mRNA level (CD4+ T cells) in salivary gland tissue, normalized to β-actin; conditions: 26-week-old NOD mouse, compound A treatment group (50 and 250 mg/kg)
# From the text: (§2) The salivary gland of the 26-week-old NOD mice used in Experimental Example 2 for the measurement of the saliva secretion amount was removed, the total RNA was recovered from there, and the mRNA levels of CD4, CD8 and CCR9 were normalize with the β-actin expression level as the internal standard.
# [4] = tested on: CD8+ T cells in the salivary gland; experiment: CD8 mRNA level (CD8+ T cells) in salivary gland tissue, normalized to β-actin; conditions: 26-week-old NOD mouse
# From the text: as §2
# [5] = tested on: CCR9; experiment: CCR9 mRNA expression level in salivary gland tissue, normalized to β-actin; conditions: 26-week-old NOD mouse, 50 and 250 mg/kg
# From the text: as §2
# [6] = tested on: anti-SS-A/Ro antibody; experiment: Anti-SS-A/Ro Ig ELISA of blood of Sjogren's syndrome animal model; conditions: 26-week-old NOD mouse; for onset frequency (positive anti-SS-A/Ro, antibody titer not less than 30 Unit): vehicle 100% onset
# Protocol: Blood samples from the 26-week-old NOD mice used in Experimental Example 2 for the measurement of the saliva secretion amount were collected, and ELISA test was carried out for two subsets of anti-SS-A/Ro and anti-SS-B/La found commonly in Sjogren's syndrome.
# For quantification of the Total Anti-SSA Ig (IgG+IgA+IgM) in the serum, commercially available Mouse Anti-SSA Total Ig ELISA Kit Cat. No. 5710 (manufactured by ALPHA DIAGNOSTIC INTERNATIONAL) was used. The standard protocol was partly modified. A mouse serum sample was diluted 1/10-fold, the serum of C57BL/6 mouse was added to anti-SSA calibrator solution (Calibrator solution) to give 10% serum.
# [7] = tested on: anti-SS-B/La antibody; experiment: Anti-SS-B/La IgG ELISA of blood of Sjogren's syndrome animal model; conditions: 26-week-old NOD mouse, 50 and 250 mg/kg
# Protocol: Blood samples from the 26-week-old NOD mice used in Experimental Example 2 for the measurement of the saliva secretion amount were collected, and ELISA test was carried out for two subsets of anti-SS-A/Ro and anti-SS-B/La found commonly in Sjogren's syndrome. […]
# antigen: SS-B (RayBiotech, Inc., MD-27-0019P) plate: Immuno 96 Microwell Plate (Nunc, 442404) washing: 0.1% Tween 20 containing PBS (hereinafter sometimes to be referred to as PBS/T) substrate: One tablet of o-phenylenediamine dihydrochloride (OPD) (Sigma, P-4809) was dissolved in 50 mM citric acid-phosphoric acid buffer pH 5.0 (Sigma, P-4809) (10 mL), and 4 μL aqueous hydrogen peroxide was added.
# SS-A and SS-B were each diluted with 50 mM carbonate buffer pH 9.6 (Sigma, C-3041) to 0.5 μg/mL and 1.0 μg/mL, respectively, and the antigen was added to an ELISA plate at 50 μL/well. After incubation at 4° C. overnight, the plate was washed 3 times with PBS/T, added with 2% BSA in PBS at 200 μL/well, and incubated at room temperature for 1 hr. After washing once with PBS/T, the serum diluted with PBS/T (100- to 500-fold) was added at 50 μL/well, and the mixture was incubated at room temperature for 1-2 hr. […]
# [8] = Time-course changes in plasma concentration in Sjogren's syndrome animal model; conditions: NOD mouse, oral twice per day 50 and 250 mg/kg, repeated for 19 weeks
# Protocol: The compound was orally administered twice per day to 8-week-old NOD mouse under the following conditions, and administration was repeated for 19 weeks.
# To the plasma (5 μL) collected from the NOD mouse were added a solvent solution (dimethyl sulfoxide/acetonitrile (2:8), 5 μL), and compound A solution (compound A dissolved in solvent solution, 5 μL) or compound B solution (compound B dissolved in solvent solution, 5 μL) for drawing an analytical curve. An internal standard substance (acetonitrile (115 μL) containing a deuterated form of compound A, or diclofenac sodium, 100 ng/mL)) was added, and the mixture was vigorously stirred. The mixture was centrifuged at 5250 rpm. To the supernatant (30 μL) was added a dilution solvent (60 μL) to give a sample solution (mobile phase A:mobile phase B=9:1 (v/v) was used as a dilution solvent).
# The above-mentioned sample solution was injected into an HPLC-MS/MS analysis apparatus, and the obtained peak area was converted to concentration from the analytical curve. The detail of the analysis apparatus is shown below.
# [9] = 23-week-old NOD mouse, 50 mg/kg
structure (smiles),measurement,setting,value
"CC(C)Oc1ccc(S(=O)(=O)Nc2ccc(Cl)cc2C(=O)c2cc[n+]([O-])cc2)cc1 [compound A, N-{4-chloro-2-[(1-oxidopyridin-4-yl)carbonyl]phenyl}-4-(propan-2-yloxy)benzenesulfonamide]",saliva secretion amount,"[1]; 21-week-old NOD mouse, 50 mg/kg orally twice daily from 8-week-old, vehicle about 8.3",about 9.8 mg/15 min/g BW
same,saliva secretion amount,"[1]; 21-week-old NOD mouse, 250 mg/kg orally twice daily from 8-week-old, vehicle about 8.3",about 11.2 mg/15 min/g BW
same,saliva secretion amount compared to the vehicle group,[1]; [9],significantly suppressed a decrease in the saliva secretion amount
same,saliva secretion amount compared to the vehicle group,"[1]; 23-week-old NOD mouse, 250 mg/kg",significantly suppressed a decrease in the saliva secretion amount
same,saliva secretion amount,"[1]; 26-week-old NOD mouse, 50 mg/kg orally twice daily from 8-week-old, vehicle about 4.0",about 5.5 mg/15 min/g BW
same,increase of saliva secretion amount than the vehicle group,"[1]; 26-week-old NOD mouse, 250 mg/kg",two-fold increase
same,saliva secretion amount,"[1]; 26-week-old NOD mouse, 250 mg/kg orally twice daily from 8-week-old, vehicle about 4.0",about 8.0 mg/15 min/g BW
same,effect on decrease in saliva secretion amount (dose dependence),"[1]; NOD mouse, 50 and 250 mg/kg, 21- and 26-week-old",significantly suppressed a decrease in the saliva secretion amount in a dose-dependent manner
same,tolerability,[2],clearly superior with compound A to compound B
same,amount of CD4+ T cells in the salivary gland as compared to the vehicle group,[3],decreased to about half
same,amount of CD8+ T cells in the salivary gland as compared to the vehicle group,[4]; 50 mg/kg,decreased to about half
same,amount of CD8+ T cells in the salivary gland as compared to the vehicle group,[4]; 250 mg/kg,about one-third
same,mRNA expression level of CCR9 in the salivary gland as compared to the vehicle group,[5],tended to decrease in a dose-dependent manner
same,"onset frequency (positive anti-SS-A/Ro, antibody titer not less than 30 Unit)",[6]; 50 mg/kg,about 50%
same,share of treatment group with anti-SS-A/Ro antibody suppressed to the control level,"[6]; 250 mg/kg, control C57BL/6 mouse",about 70%
same,"onset frequency (positive anti-SS-A/Ro, antibody titer not less than 30 Unit)",[6]; 250 mg/kg,about 30%
same,anti-SS-A/Ro antibody titer in blood,[6]; 50 and 250 mg/kg,decreased in a dose-dependent manner
same,anti-SS-B/La antibody titer in blood,[7],decreased in a dose-dependent manner
same,blood exposure,[8],good blood exposure
same,metabolism / accumulation in the body,[8],rapidly metabolized without accumulation in the body
"CC(C)(C)c1ccc(S(=O)(=O)Nc2ccc(Cl)cc2C(=O)c2cc[n+]([O-])cc2)cc1 [compound B, N-{4-chloro-2-[(1-oxidopyridin-4-yl)carbonyl]phenyl}-4-(tert-butyl)benzenesulfonamide]",saliva secretion amount compared to the vehicle group,[1]; [9],significantly higher
same,dose-dependent effect on saliva secretion amount,"[1]; 23-week-old NOD mouse, 50 and 250 mg/kg",the dose-dependent effect was not found
same,AUC relative to compound A,[8],about one-tenth that of compound A
same,metabolism / accumulation in the body,[8],rapidly metabolized without accumulation in the body
